“Also recorded” adds a separate entry of the source.
Assays:
[1] = test system: cerebellar granule neurons (CGNs); assay: serum deprivation/KCl reduction-induced degeneration; assay type: cell-based, mouse; conditions: 5 mM KCl, 24 hours
Experimental: Kinase inhibitors (inhibitors of GSK3, JNK, EGFR, p38, and CaMKK) were tested for their capacity to protect cultured cerebellar granule neurons (CGNs) following serum deprivation/KCl reduction. Briefly, CGNs isolated from P7 mouse brain were cultured on PDL- and laminin-coated 96-well tissue culture dishes in medium containing serum and potassium (Basal Medium Eagles including 29 mM KCl and 10% FBS) at 37° C. After 24 hours in culture, cells were switched to “deprivation” medium (Basal Medium Eagles including 5 mM KCl), alone or in combination with various small molecule inhibitors as shown in Table 8. After a further 24 hours in culture, the neurons were fixed with 4% paraformaldehyde and stained with a neuronal marker (anti-class III β-Tubulin, Covance). Image acquisition was performed using the ImageXpress automated imaging system (Molecular Devices).

DRGs [2] = assay: Campenot chamber local axon degeneration, anti-NGF in axon compartment; assay type: cell-based, mouse; conditions: for formation of varicosities in locally NGF-deprived axons: axon inhibitors added to axon compartment: 10 μM AG555, 30 μM SB239; for Axon Compartment (axon protected when inhibitor is in axon compartment) / Cell Body Compartment (axon protected when inhibitor is in cell body compartment): anti-NGF in axon compartment, 28 hours
Experimental: Teflon dividers (Tyler Research) were cleaned by washing in water and wiping them clean of any residual grease. Dividers were then soaked in Nochromix (Godax Laboratories)/sulfuric acid overnight, rinsed five times in distilled and autoclaved water (SQ water), boiled for 30 minutes, and then air-dried before use.
Mouse laminin (5 μg/ml in sterile filtered water; Invitrogen) was added to PDL coated 35 mm dishes (BD Biosciences) and they were incubated for 1 hour at 37° C., followed by two rinses in SQ water. The dishes were vacuum-dried and then air-dried in a laminar flow hood for 15 minutes. Prepared dishes were then scored with a pin rake (Tyler Research). […] High vacuum grease (VWR) was added to each Teflon divider under a dissection scope. The laminin coated PDL dishes were inverted and dropped onto the Teflon divider, with additional pressure added by use of a toothpick in the non-track-containing regions. Dishes were incubated for 1 hour at 37° C. Five hundred microliters of NBM+MC (50 ng/ml NGF) solution was added to each of the side compartments, and a grease barrier was added in front of the center cell slot.
Free E13.5 spinal cords were dissected from mouse embryos and placed into NBM+MC (25 ng/ml NGF) solution. DRGs were detached from the spinal cord with a tungsten needle. An NBM+MC-lubricated P200 pipette was used to move DRGs into a 1.5 ml tube. DRGs were pelleted with a tabletop centrifuge for 30 seconds. The supernate was discarded and 0.05% Trypsin/EDTA (cold) was added. The pellet was resolubilized with a pipette and incubated at 37° C. for 15 minutes with constant agitation (650 RPM). The sample was again centrifuged and the supernate discarded. The pellet was resuspended in warm NBM+MC (50 ng/ml NGF) solution and triturated with a flamed glass pipette 20 times, followed by trituration with a fire-bored glass pipette another 20 times. The samples were again centrifuged and the resulting pellets were resuspended in 0.5 ml NBM+MC (50 ng/ml NGF) solution. The cells were diluted to a final concentration of 2.5×10^6 cells/ml. The cell suspensions were loaded into a 1 ml syringe with a 22 gauge needle. The center slot of the Campenot divider was filled using the syringe (to a volume of at least 50 μl). The Campenot chamber was incubated overnight at 37° C. 2.5 ml NGF+MC (50 ng/ml NGF) solution was added to the center compartment and the grease gate was removed. The outer medium (cell body compartment) was replaced after three days with 2.5 ml NBM+MC medium (with 25 ng/ml NGF). After five days in culture, one distal compartment was washed three times with warmed NBM+MC (no NGF) solution. After the third wash, 500 μl NBM+MC (no NGF) solution was added to the axon compartment in combination with either 0.5% DMSO or an inhibitor. The cell body compartment was replaced with 2.5 ml NBM+MC medium (with 25 ng/ml NGF) containing either 0.5% DMSO or inhibitor.
After 28 hours of anti-NGF antibody treatment, 8% PFA/30% sucrose solution (see above) was added directly to the culture medium at a 1:1 dilution and incubated for 30 minutes. The Teflon divider was removed after the first 15 minutes of addition. The system was washed once with 2.5 ml PBS prior to immunostaining. Neurons were blocked in 5% BSA/0.2% triton in PBS for 30 minutes. The primary antibody Tuj1 (Covance) was added to a final dilution of 1:1000 in PBS containing 2% BSA and incubated overnight at 4° C. The dish was washed once with PBS. […] The dish was washed twice with PBS, and a 22×22 mm coverslip (VWR) was added with 350 μl of fluoromount G (Electron Microscopy Sciences). The neurons were visualized by use of a fluorescence microscope.
As described above, E13.5 DRGs were isolated and grown for 5 days in a Campenot chamber.

[3] = test system: heregulin induced tyrosine phosphorylation in MDA-MB-453 cells; conditions: published source (footnote b), read-out: Cellular IC50; cited from earlier work
[4] = test system: protein tyrosine phosphorylation in 3T3-Her2 cells; conditions: published source (footnote c), read-out: Cellular IC50; cited from earlier work
DRGs [5] = assay: G-protein/GPCR inhibitors in NGF withdrawal-induced degeneration in DRGs; assay type: cell-based
Experimental: The assays described herein identified several inhibitors of G-proteins and G-protein coupled receptors (GPCRs) that decrease degeneration in neurons. Experiments were performed in DRGs to verify the role of G-proteins and GPCRs in degeneration pathways. The experimental protocols used in these experiments are the same as those described in Example 14. Pertussis toxin and SCH 202676 were purchased from Tocris Bioscience.

[6] = test system: dorsal spinal cord explants; assay: dorsal spinal cord (DSC) explant degeneration; assay type: cell-based; conditions: 3.4 μM, 11.1 μM, 33.3 μM and 100 μM (FIG. 37)
From the text: DSCs grow out axons over a period of days, but if they are not rescued with the addition of a survival factor, they will eventually degenerate.

ERK = ERK activation by EGFR ligand, Western blot; assay type: cell-based, mouse; conditions: 100 μg/mL EGF, 30 minutes to 1 hour
Experimental: (§1) Dorsal Root Ganglia (DRG) immunoblots were prepared as follows. Primary cells used in the experiments were Charles River CD-1 E13 Dorsal Root Ganglia (DRG). The cells were maintained in N3/F12 (+25 ng/ml NGF) medium (Ham's F12 (23 ml), N3 supplement (1 ml), glucose (1 ml of 1 M glucose stock), 25 ng/ml Nerve Growth Factor 2.5 S, mouse (Roche 11362348001) in Ham's F12 (stock: 50 μg/ml −80° C.), which was filter-sterilized prior to use). The experiments also employed Triton lysis buffer (20 mM Tris pH 7.5, 150 mM NaCl, 0.1% Triton-X100, 100× Phosphatase inhibitor cocktail I (added fresh), 100× Phosphatase inhibitor cocktail II (added fresh), 1 tablet/10 ml Protease inhibitor tablet (added fresh)).
(§2) DRG explants were prepared on Day 0. Embryo dissections were carried out in L15 medium (dissection tools were soaked in 70% isopropanol, and dishes were set up on ice: 10 cm dishes (4 embryos per dish) and one 6 cm dish for spinal cords). E13.5 spinal cords were extracted into DMEM+10% FBS. […]
Immunoblotting was carried out by aspiration of media with a pipette tip, washing twice with ice-cold sterile PBS, and removal of all PBS using an aspirator with a pipette tip or kimwipes. […] Quantification was carried out by choosing a background method and standard bands that minimize negative/counter-intuitive values: i.e., top/bottom, right/left, user-defined (user-defined). […]

[7] = test system: dorsal root ganglion neurons; assay: EGFR ligand added to neurons maintained in NGF: axon degeneration; assay type: cell-based, mouse; conditions: 100 μg/mL EGF
Experimental: as §1
as §2, with “FBS. 5×20 DRGs were detached from the spinal cord. 8 well slides were filled with 250 μl N3/F12 (25 ng/ml NGF)+7 μM cytosine arabinoside.” for “FBS.”
The goal of these experiments was to see if activation of EGFR by EGF would be sufficient to drive degeneration. […] To ensure that EGF is capable of activating EGFR/ErbBs in the neuronal cultures used in these assays, ERK activation was assessed (ERK is a downstream target of EGFR).

[8] = inhibitor 30 μM, listed as SB239
[9] = inhibitor 30 μM, listed as SB239063

Compound: C=C/C=C(\C=C)CCCNC(=O)/C(C#N)=C/c1ccc(O)c(O)c1 [AG 555]
- protection of cerebellar granule neurons from serum deprivation/KCl reduction ([1]; inhibitor 1 μM or 10 μM): protect cerebellar granule neurons from serum deprivation/KCl reduction
- formation of varicosities in locally NGF-deprived axons (DRGs [2]): fewer varicosities
- Axon Compartment (axon protected when inhibitor is in axon compartment) (DRGs [2]; inhibitor 10 μM): did not degenerate; also recorded: protected from local degeneration; also recorded: Yes (4)
- Cell Body Compartment (axon protected when inhibitor is in cell body compartment) (DRGs [2]; inhibitor 10 μM): failed to prevent degeneration; also recorded: No (4)

Compound: C=CC(=O)Nc1ccc2ncnc(Nc3cccc(Br)c3)c2c1 [PD168393]
- IC50 [3]: 0.005 µM
- IC50 [4]: 100 µM
- Axon Compartment (axon protected when inhibitor is in axon compartment) (DRGs [2]; inhibitor 5 μM): Yes (1)
- Cell Body Compartment (axon protected when inhibitor is in cell body compartment) (DRGs [2]; inhibitor 5 μM): No (1)

Compound: COc1nccc(-c2c(-c3ccc(F)cc3)ncn2C2CCC(O)CC2)n1 (centres unmarked) [SB 239063]
- protection of cerebellar granule neurons from serum deprivation/KCl reduction ([1]; inhibitor 5 μM): protect cerebellar granule neurons from serum deprivation/KCl reduction
- formation of varicosities in locally NGF-deprived axons (DRGs [2]): fewer varicosities
- Axon Compartment (axon protected when inhibitor is in axon compartment) (DRGs [2]; inhibitor 5 μM): Yes (1)
- Cell Body Compartment (axon protected when inhibitor is in cell body compartment) (DRGs [2]; inhibitor 5 μM): No (1)
- Axon Compartment (axon protected when inhibitor is in axon compartment) (DRGs [2]; [8]): did not degenerate; also recorded: protected from local degeneration
- Cell Body Compartment (axon protected when inhibitor is in cell body compartment) (DRGs [2]; [8]): failed to prevent degeneration
- Axon Compartment (axon protected when inhibitor is in axon compartment) (DRGs [2]; [9]): Yes (3)
- Cell Body Compartment (axon protected when inhibitor is in cell body compartment) (DRGs [2]; [9]): No (3)

Compound: CN=c1nc(-c2ccccc2)n(-c2ccccc2)s1 [SCH 202676]
- NGF withdrawal-induced degeneration in DRGs (DRGs [5]; 0.1 μM, 1 μM, 10 μM or 100 μM (FIGS. 49 and 50)): decreases NGF withdrawal-induced degeneration in DRGs

Compound: O=C1c2ccccc2-c2n[nH]c3cccc1c23 [SP600125]
- protection of cerebellar granule neurons from serum deprivation/KCl reduction ([1]; inhibitor 5 μM): protect cerebellar granule neurons from serum deprivation/KCl reduction
- Axon Compartment (axon protected when inhibitor is in axon compartment) (DRGs [2]; inhibitor 5 μM): Yes (1)
- Cell Body Compartment (axon protected when inhibitor is in cell body compartment) (DRGs [2]; inhibitor 5 μM): Yes (1)
- Axon Compartment (axon protected when inhibitor is in axon compartment) (DRGs [2]; inhibitor 10 μM): Yes (1)
- Cell Body Compartment (axon protected when inhibitor is in cell body compartment) (DRGs [2]; inhibitor 10 μM): Yes (1)

Compound: C#Cc1cccc(Nc2ncnc3cc(OCCOC)c(OCCOC)cc23)c1 [Tarceva, N-(3-ethynylphenyl)-6,7-bis(2-methoxyethoxy)quinazolin-4-amine]
- degeneration in dorsal spinal cord explants [6]: delay this degeneration program; also recorded: blocks degeneration in dorsal spinal cord explants

Compound: EGF: ErbB ligand (ErbB1) that activates EGFR (NSDSECPLSHDGYCLHDGVCMYIEALDKYACNCVVGYIGERCQYRDLKWWELR; Epidermal growth factor; UniProt P01133 971-1023, looked up)
- phosphorylation of ERK (ERK activity by Western blot) (ERK): increased ERK activity; also recorded: induces phosphorylation of ERK
- induction of axon degeneration in neurons maintained in NGF [7]: does not cause degeneration; also recorded: does not induce axon degeneration

Compound: Pertussis toxin
- degeneration in neurons following NGF withdrawal (DRGs [5]; 0.01 μg/mL, 0.1 μg/mL or 1 μg/mL (FIG. 51)): decreases degeneration in neurons following NGF withdrawal

From patent publication US20160279190A1, “MODULATION OF AXON DEGENERATION” (GENENTECH, INC., priority 2008, published 2016)
